Laboratory results as given in patent US20230218710A1, “METHOD OF TREATING CORONAVIRUS INFECTIONS” (priority 2020, published 2023).
Square brackets hold non-standard residues; d marks the D form. Peptide text beside a SMILES is read from it. * marks the point of attachment. CH3O(CH2CH2O)11CH2CH2CO = COCCOCCOCCOCCOCCOCCOCCOCCOCCOCCOCCOCCC(=O)*

Experiments:
[1] = in vitro; conditions: human, pooled human plasma
Description: The metabolic stability of the peptides can be assessed in vitro by incubation in plasma and determination of the amount of peptide remaining over time. Peptides (50 μM) were incubated in pooled plasma from mice, monkeys, and humans at 37° C. Samples were removed at intervals up to 3 hours and immediately analyzed for the concentration of intact peptide by LC/MS/MS. The percent of peptide remaining in plasma at each time point was calculated relative to the initial peak area.

[2] = target: human APJ (Homo sapiens, UniProt P35414); assay: cell-based; conditions: CHO-K1, 1.5 h, read-out: Percent of Apelin-13 Control Activity
Chain of human APJ (P32121 whole entry partner, one chain of several): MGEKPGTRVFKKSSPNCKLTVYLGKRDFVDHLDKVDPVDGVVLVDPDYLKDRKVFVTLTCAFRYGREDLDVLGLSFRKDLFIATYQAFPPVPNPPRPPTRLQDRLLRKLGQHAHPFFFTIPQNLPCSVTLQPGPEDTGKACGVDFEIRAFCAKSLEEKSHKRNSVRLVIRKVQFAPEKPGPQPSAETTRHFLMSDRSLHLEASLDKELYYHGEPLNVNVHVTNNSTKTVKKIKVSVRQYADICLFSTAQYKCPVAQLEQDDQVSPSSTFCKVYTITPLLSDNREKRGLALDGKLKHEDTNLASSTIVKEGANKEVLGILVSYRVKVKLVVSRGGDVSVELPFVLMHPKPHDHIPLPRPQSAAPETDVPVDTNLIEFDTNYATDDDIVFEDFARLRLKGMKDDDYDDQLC
Description: The effect of the peptides on activation of Apelin Receptor (APJ) can be assessed using an assay to monitor β-Arrestin recruitment in cultured cells overexpressing APJ such as CHO-K1, derived from Chinese hamster ovary. β-Arrestin recruitment assays were performed by Eurofins-DiscoverX (Fremont, Calif.) using CHO-K1 AGTRL1 β-Arrestin cell line (co-expressing ProLink tagged human APJ and Enzyme Acceptor tagged β-Arrestin) and PathHunter detection kit. Peptides were initially prepared either as 10 mM stock in DMSO and used at a final concentration of 10 μM (0.1% DMSO). CHO-K1 AGTRL1 β-Arrestin cells were seed onto 384-well plates in standard medium. […] Following 90 min. incubation at 37° C., β-Arrestin recruitment in response to various treatments was quantified using a chemiluminescent complementation reporter assay to measure association of tagged human APJ (ProLink tag) and tagged β-Arrestin (Enzyme Acceptor tag).

[3] = target: T1, Apelin Receptor (APJ) (Homo sapiens, UniProt P35414); assay: cell-based; conditions: CHO-K1, 0.5 h, read-out: Percent of Pyr-Apelin-13 Control Activity
T1 construct: host or cells: CHO-K1 AGTRL1 Gi cells
T1 sequence (P35414 1-380): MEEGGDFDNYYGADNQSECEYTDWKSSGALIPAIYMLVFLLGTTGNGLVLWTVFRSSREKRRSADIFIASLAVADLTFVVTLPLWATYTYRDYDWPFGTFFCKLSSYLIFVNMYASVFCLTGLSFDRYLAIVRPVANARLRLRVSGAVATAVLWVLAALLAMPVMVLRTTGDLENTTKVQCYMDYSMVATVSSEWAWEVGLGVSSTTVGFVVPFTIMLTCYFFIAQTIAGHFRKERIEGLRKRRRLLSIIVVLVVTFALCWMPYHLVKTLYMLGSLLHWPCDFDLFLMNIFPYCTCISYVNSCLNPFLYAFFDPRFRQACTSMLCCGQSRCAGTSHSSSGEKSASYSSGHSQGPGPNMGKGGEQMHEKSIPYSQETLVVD
Description: Peptides were initially prepared as 30 mM stock in DMSO and diluted to 3 mM in H2O or directly as 3 mM stock in H2O; used at a final concentration of 10 μM (0-0.1% DMSO).

| SMILES | remaining at 0.5 h, 50 μM [1] [%] | Emax at 10 µM [2] [%] | Emax at 10 µM [3] [%] |
| --- | --- | --- | --- |
| CSCC[C@H](NC(=O)CNC(=O)[C@H](CCSC)NC(=O)[C@H](CCSC)NC(=O)[C@H](CCCNC(=N)N)NC(=O)[C@@H](N)CCCNC(=N)N)C(=O)N[C@H](C(=O)N[C@@H](C)C(=O)N[C@@H](CCC(N)=O)C(=O)N[C@@H](CS)C(=O)N[C@@H](CC(C)C)C(=O)N[C@@H](CS)C(=O)NCC(=O)N[C@H](C)C(=O)O)C(C)C [compound 11] | 97.9 | 0 | 49 |
| COCCOCCOCCOCCOCCOCCOCCOCCOCCOCCOCCOCCC(=O)NCCCC[C@H](NC(=O)[C@@H](C)NC(=O)CNC(=O)[C@H](CS)NC(=O)[C@H](CC(C)C)NC(=O)[C@H](CS)NC(=O)[C@H](CCC(N)=O)NC(=O)[C@H](Cc1ccccc1)NC(=O)[C@@H](NC(=O)[C@H](CCSC)NC(=O)CNC(=O)[C@H](CCSC)NC(=O)[C@H](CCSC)NC(=O)[C@H](CCCNC(=N)N)NC(=O)[C@@H](N)CCCNC(=N)N)C(C)C)C(=O)O [compound 21] | 29.5 | 1 | 34 |
| COCCOCCOCCOCCOCCOCCOCCOCCOCCOCCOCCOCCC(=O)N[C@@H](CCCCN)C(=O)N[C@@H](CCCNC(=N)N)C(=O)N[C@@H](CCCNC(=N)N)C(=O)N[C@@H](CCSC)C(=O)N[C@@H](CCSC)C(=O)NCC(=O)N[C@@H](CCSC)C(=O)N[C@H](C(=O)N[C@@H](Cc1ccccc1)C(=O)N[C@@H](CCC(N)=O)C(=O)N[C@@H](CS)C(=O)N[C@@H](CC(C)C)C(=O)N[C@@H](CS)C(=O)NCC(=O)N[C@H](C)C(=O)O)C(C)C [compound 20] | 75.3 | 1 | 37 |
| CSCC[C@H](NC(=O)CNC(=O)[C@H](CCSC)NC(=O)[C@H](CCSC)NC(=O)[C@H](CCCNC(=N)N)NC(=O)[C@@H](N)CCCNC(=N)N)C(=O)N[C@H](C(=O)N[C@@H](C)C(=O)N[C@@H](CCC(N)=O)C(=O)N[C@@H](CS)C(=O)N[C@@H](CC(C)C)C(=O)N[C@@H](CCC(=O)O)C(=O)NCC(=O)N[C@H](C)C(=O)O)C(C)C [compound 30] (H-RRMMGMVAQCLEG[dA]-OH; N-terminus and C-terminus assumed) | 14.9 | -1 | 31 |
| CSCC[C@H](NC(=O)[C@H](CCCNC(=N)N)NC(=O)[C@@H](N)CCCNC(=N)N)C(=O)N[C@@H](CCC(=O)O)C(=O)N[C@H](C(=O)N[C@@H](Cc1ccc(O)cc1)C(=O)N[C@@H](CCC(N)=O)C(=O)N[C@@H](CS)C(=O)N[C@@H](CC(C)C)C(=O)N[C@@H](CS)C(=O)NCC(=O)N[C@H](C)C(=O)O)C(C)C [compound 31] (H-RRMEVYQCLCG[dA]-OH; N-terminus and C-terminus assumed) | 100 | 0 | 2 |
| CSCC[C@H](NC(=O)CNC(=O)[C@H](CCSC)NC(=O)[C@H](CCSC)NC(=O)[C@H](CCCNC(=N)N)NC(=O)[C@@H](N)CCCNC(=N)N)C(=O)N[C@H](C(=O)N[C@@H](Cc1ccccc1)C(=O)N[C@@H](CCC(N)=O)C(=O)N[C@@H](CO)C(=O)N[C@@H](CC(C)C)C(=O)N[C@@H](CS)C(=O)NCC(=O)N[C@H](C)C(=O)O)C(C)C [compound 15] | 24.3 | 40 | 105 |
| CC[C@H](C)[C@H](NC(=O)CNC(=O)[C@@H](NC(=O)[C@@H](NC(=O)[C@H](CCCNC(=N)N)NC(=O)[C@H](CCCNC(=N)N)NC(=O)[C@H](CCCCN)NC(=O)CCOCCOCCOCCOCCOCCOCCOCCOCCOCCOCCOCCOC)[C@@H](C)CC)[C@@H](C)CC)C(=O)N[C@H](C(=O)N[C@@H](Cc1ccccc1)C(=O)N[C@@H](CCC(N)=O)C(=O)N[C@@H](CS)C(=O)N[C@@H](CC(C)C)C(=O)N[C@@H](CS)C(=O)NCC(=O)N[C@H](C)C(=O)O)C(C)C [compound 42] ({CH3O(CH2CH2O)11CH2CH2CO}-KRRIIGIVFQCLCG[dA]-OH; N-terminus and C-terminus assumed) |  | 8 | 33 |
